Laboratory results from US20240228535A1 (priority 2022, published 2024).

Target: SARS2 coronavirus 3CL protease (Severe acute respiratory syndrome coronavirus 2, UniProt P0DTD1)
Experiment: biochemical
Conditions: 5 nM enzyme, 30 min pre-incubation with compound, 15 μM peptide substrate, 4 h at room temperature; read-out: FRET Potency (nM); IC50 values in the SARS2 3CLPro FRET assay

`O=C(CCC(F)(F)F)Nc1ccc(Cl)cc1C(=O)N[C@@H](C[C@@H]1CCCNC1=O)C(=O)C(=O)NC1CC1` [Example 235, 5-chloro-N-[(1S)-3-(cyclopropylamino)-2,3-dioxo-1-[[(3S)-2-oxo-3-piperidyl]methyl]propyl]-2-(4,4,4-trifluorobutanoylamino) benzamide] and `O=C(NC1CC1)C(=O)[C@H](C[C@@H]1CCNC1=O)NC(=O)c1cc(Cl)ccc1NC(=O)C1(CC(F)(F)F)CC1` [Example 36, 5-chloro-N-[(1S)-3-(cyclopropylamino)-2,3-dioxo-1-[[(3S)-2-oxopyrrolidin-3-yl]methyl]propyl]-2-[[1-(2,2,2-trifluoroethyl)cyclopropane-carbonyl]amino]benzamide] are within 1.5-fold of each other in IC50: 15.1 nM for the first, 10.7 nM for the second.

`C[C@@H]1C[C@@H](C[C@H](NC(=O)c2cc(Cl)cnc2NC(=O)c2cccc(F)c2)C(=O)C(=O)NC2CC2)C(=O)N1` [Example 58, 5-chloro-N-[(1S)-3-(cyclopropylamino)-1-[[(3S,5R)-5-methyl-2-oxo-pyrrolidin-3-yl]methyl]-2,3-dioxo-propyl]-2-[(3-fluorobenzoyl)amino] pyridine-3-carboxamide] and `C[C@@H]1C[C@@H](C[C@H](NC(=O)c2cc(Cl)ccc2NC(=O)c2ccc(C(F)(F)F)nc2)C(=O)C(=O)NC2CC2)C(=O)N1` [Example 225, N-[4-chloro-2-[[(1S)-3-(cyclopropylamino)-1-[[(3S,5R)-5-methyl-2-oxo-pyrrolidin-3-yl]methyl]-2,3-dioxo-propyl]carbamoyl]phenyl]-6-(trifluoromethyl)pyridine-3-carboxamide] are within 1.5-fold of each other in IC50: 8.1 nM for the first, 6.8 nM for the second.

`C[C@@H]1C[C@@H](C[C@H](NC(=O)c2cc(Cl)ccc2NC(=O)OC2CC2)C(=O)C(=O)NC2CC2)C(=O)N1` [Example 160, cyclopropyl N-[4-chloro-2-[[(1S)-3-(cyclopropylamino)-1-[[(3S,5R)-5-methyl-2-oxo-pyrrolidin-3-yl]methyl]-2,3-dioxo-propyl]carbamoyl]phenyl] carbamate] and `O=C(Nc1ccc(Cl)cc1C(=O)N[C@@H](C[C@@H]1CCNC1=O)C(=O)C(=O)NC1CC1)OC1CCC1` [Example 161, cyclobutyl N-[4-chloro-2-[[(1S)-3-(cyclopropylamino)-2,3-dioxo-1-[[(3S)-2-oxopyrrolidin-3-yl]methyl]propyl]carbamoyl]phenyl]carbamate] are within 1.5-fold of each other in IC50: 8.8 nM for the first, 5.9 nM for the second.

Going from `CNC(=O)C(=O)[C@H](C[C@@H]1C[C@@H](C)NC1=O)NC(=O)c1cc(F)c(Cl)cc1NC(=O)OC` [Example 134, methyl N-[5-chloro-4-fluoro-2-[(1S)-3-(methylamino)-1-[[(3S,5R)-5-methyl-2-oxo-pyrrolidin-3-yl]methyl]-2,3-dioxo-propyl]carbamoyl]phenyl] carbamate] to `CNC(=O)C(=O)[C@H](C[C@@H]1C[C@@H](C)NC1=O)NC(=O)c1cc(F)ccc1NC(=O)OC1CC1` [Example 121, cyclopropyl N-[4-fluoro-2-[[(1S)-3-(methylamino)-1-[[(3S,5R)-5-methyl-2-oxo-pyrrolidin-3-yl]methyl]-2,3-dioxo-propyl]carbamoyl]phenyl] carbamate], the IC50 falls from 28.2 nM to 10.9 nM (2.6-fold). The second is the more potent here.

First: CNC(=O)C(=O)[C@H](C[C@@H]1C[C@@H](C)NC1=O)NC(=O)c1cc(F)ccc1NC(=O)c1ccnc(C(F)(F)F)c1 [Example 207, N-[4-fluoro-2-[[(1S)-3-(methylamino)-1-[[(3S,5R)-5-methyl-2-oxo-pyrrolidin-3-yl]methyl]-2,3-dioxo-propyl]carbamoyl]phenyl]-2-(trifluoromethyl)pyridine-4-carboxamide]
Second: CNC(=O)C(=O)[C@H](C[C@@H]1C[C@@H](C)NC1=O)NC(=O)c1cc(Cl)ccc1NC(=O)c1ccnc(C(F)(F)F)c1 [Example 74]
The IC50 of the first is 1.8-fold higher: 11.4 nM for the first, 6.2 nM for the second. The second is the more potent here.

`CC(C)OC(=O)Nc1ccc(Cl)cc1C(=O)N[C@@H](C[C@@H]1CCNC1=O)C(=O)C(=O)NC1CC1` [Example 96, isopropyl N-[4-chloro-2-[[(1S)-3-(cyclopropylamino)-2,3-dioxo-1-[[(3S)-2-oxopyrrolidin-3-yl]methyl]propyl]carbamoyl]phenyl]carbamate] and `[2H]C([2H])([2H])OC(=O)Nc1ccc(Cl)cc1C(=O)N[C@@H](C[C@@H]1CCNC1=O)C(=O)C(=O)NC1CC1` [Example 124, trideuteriomethyl N-[4-chloro-2-[[(1S)-3-(cyclopropylamino)-2,3-dioxo-1-[[(3S)-2-oxopyrrolidin-3-yl]methyl]propyl]carbamoyl]phenyl]carbamate] are within 1.5-fold of each other in IC50: 6 nM for the first, 8.2 nM for the second.

Compared with `CNC(=O)C(=O)[C@H](C[C@@H]1C[C@@H](C)NC1=O)NC(=O)c1cc(Cl)ccc1NC(=O)C12CC(C(F)(F)F)(C1)C2` [Example 46, N-[4-chloro-2-[[(1S)-3-(methylamino)-1-[[(3S,5R)-5-methyl-2-oxo-pyrrolidin-3-yl]methyl]-2,3-dioxo-propyl]carbamoyl]phenyl]-3-(trifluoromethyl)bicyclo[1.1.1] pentane-1-carboxamide], `CNC(=O)C(=O)[C@H](C[C@@H]1C[C@@H](C)NC1=O)NC(=O)c1cc(C(F)F)ccc1NC(=O)C1(C(F)(F)F)CC1` [Example 203, 5-(difluoromethyl)-N-[(1S)-3-(methylamino)-1-[[(3S,5R)-5-methyl-2-oxo-pyrrolidin-3-yl]methyl]-2,3-dioxo-propyl]-2-[[1-(trifluoromethyl)cyclopropane-carbonyl]amino]benzamide] is 4.1-fold higher in IC50: 8.9 nM for the first, 36.6 nM for the second. The first is the more potent here.

Going from `CNC(=O)C(=O)[C@H](C[C@@H]1CCNC1=O)NC(=O)c1cc(Cl)ccc1NC(=O)c1ccnc(C(F)(F)F)c1` [Example 90] to `CNC(=O)C(=O)[C@H](C[C@@H]1C[C@@H](C)NC1=O)NC(=O)c1cc(Cl)ccc1NC(=O)c1ccc(C(F)(F)F)nc1` [Example 76, N-[4-chloro-2-[[(1S)-3-(methylamino)-1-[[(3S,5R)-5-methyl-2-oxo-pyrrolidin-3-yl]methyl]-2,3-dioxo-propyl]carbamoyl]phenyl]-6-(trifluoromethyl)pyridine-3-carboxamide], the IC50 falls from 12.3 nM to 5.3 nM (2.3-fold).

`C[C@@H]1C[C@@H](C[C@H](NC(=O)c2cc(Cl)ccc2NC(=O)c2cccc(C(F)(F)F)c2)C(=O)C(N)=O)C(=O)N1` [Example 48, N-[(1S)-3-amino-1-[[(3S,5R)-5-methyl-2-oxo-pyrrolidin-3-yl]methyl]-2,3-dioxo-propyl]-5-chloro-2-[[3-(trifluoromethyl)benzoyl]amino]benzamide] and `C[C@@H]1C[C@@H](C[C@H](NC(=O)c2cc(Cl)ccc2NC(=O)[C@H]2CC2(F)F)C(=O)C(=O)NC2CC2)C(=O)N1` [Example 8, 5-chloro-N—((S)-4-(cyclopropylamino)-1-((3S,5R)-5-methyl-2-oxopyrrolidin-3-yl)-3,4-dioxobutan-2-yl)-2-((R)-2,2-difluorocyclopropane-1-carboxamido)benzamide] are within 1.5-fold of each other in IC50: 8.8 nM for the first, 10.1 nM for the second.

`C[C@@H]1C[C@@H](C[C@H](NC(=O)c2cc(Cl)c(F)cc2NC(=O)C2(C(F)(F)F)CC2)C(=O)C(=O)NC2CC2)C(=O)N1` [Example 33, 5-chloro-N-[(1S)-3-(cyclopropylamino)-1-[[(3S,5R)-5-methyl-2-oxo-pyrrolidin-3-yl]methyl]-2,3-dioxo-propyl]-4-fluoro-2-[[1-(trifluoromethyl)cyclopropane-carbonyl]amino]benzamide] and `C[C@@H]1C[C@@H](C[C@H](NC(=O)c2cc(Cl)ccc2NC(=O)C2CC23CC3)C(=O)C(=O)NC2CC2)C(=O)N1` (stereo partly drawn) [Example 83, N-[4-chloro-2-[[(1S)-3-(cyclopropylamino)-1-[[(3S,5R)-5-methyl-2-oxo-pyrrolidin-3-yl]methyl]-2,3-dioxo-propyl]carbamoyl]phenyl] spiro[2.2]pentane-2-carboxamide] are within 1.5-fold of each other in IC50: 12.2 nM for the first, 10.5 nM for the second.

Going from `CO[C@@H](C)C(=O)Nc1ccc(Cl)cc1C(=O)N[C@@H](C[C@@H]1C[C@@H](C)NC1=O)C(=O)C(=O)NC1CC1` [Example 166, 5-chloro-N-[(1S)-3-(cyclopropylamino)-1-[[(3S,5R)-5-methyl-2-oxo-pyrrolidin-3-yl]methyl]-2,3-dioxo-propyl]-2-[[(2S)-2-methoxypropanoyl]amino] benzamide] to `CNC(=O)C(=O)[C@H](C[C@@H]1C[C@@H](C)NC1=O)NC(=O)c1cc(Cl)ccc1NC(=O)C1CCCC(F)(F)C1` (single isomer, unassigned) [Example 199], the IC50 rises from 10.1 nM to 18.7 nM (1.9-fold). The first is the more potent here.

Compared with `CNC(=O)C(=O)[C@H](C[C@@H]1CCNC1=O)NC(=O)c1cc(Cl)ccc1NC(=O)OC1CC1` [Example 11, cyclopropyl (4-chloro-2-(((S)-4-(methylamino)-3,4-dioxo-1-((S)-2-oxopyrrolidin-3-yl)butan-2-yl)carbamoyl)phenyl)carbamate], `CNC(=O)C(=O)[C@H](C[C@@H]1CCNC1=O)NC(=O)c1cc(Cl)ccc1NC(=O)C1CC1` [Example 110, 5-chloro-2-(cyclopropanecarbonylamino)-N-[(1S)-3-(methylamino)-2,3-dioxo-1-[[(3S)-2-oxopyrrolidin-3-yl]methyl]propyl]benzamide] is 1.5-fold lower in IC50: 4.8 nM for the first, 3.1 nM for the second.

Going from `CNC(=O)C(=O)[C@H](C[C@@H]1CCNC1=O)NC(=O)c1cc(Cl)ccc1NC(=O)OC1CC1(F)F` (stereo partly drawn) [Example 157, (2,2-difluorocyclopropyl) N-[4-chloro-2-[[(1S)-3-(methylamino)-2,3-dioxo-1-[[(3S)-2-oxopyrrolidin-3-yl]methyl]propyl]carbamoyl]phenyl]carbamate] to `C[C@@H]1C[C@@H](C[C@H](NC(=O)c2cc(F)cnc2NC(=O)C2CC(F)(F)C2)C(=O)C(=O)NC2CC2)C(=O)N1` [Example 23, N-[(1S)-3-(cyclopropylamino)-1-[[(3S,5R)-5-methyl-2-oxo-pyrrolidin-3-yl]methyl]-2,3-dioxo-propyl]-2-[(3,3-difluorocyclobutanecarbonyl)amino]-5-fluoro-pyridine-3-carboxamide], the IC50 rises from 8.9 nM to 20.6 nM (2.3-fold). The first is the more potent here.

For `C[C@@H]1C[C@@H](C[C@H](NC(=O)c2c(NC(=O)c3ccnc(C(F)(F)F)c3)cc(F)c(F)c2F)C(=O)C(=O)NC2CC2)C(=O)N1` [Example 233, N-[2-[[(1S)-3-(cyclopropylamino)-1-[[(3S,5R)-5-methyl-2-oxo-pyrrolidin-3-yl]methyl]-2,3-dioxo-propyl]carbamoyl]-3,4,5-trifluoro-phenyl]-2-(trifluoromethyl)pyridine-4-carboxamide], the IC50 was 44 nM.
